# In patent US5670520A, “Method for inhibiting virus replication in mammalian cells using carbostyil derivatives” (Otsuka Pharmaceutical Co., Ltd., priority 1996, dated 1997):
# What was measured:
# ZEBRA = assay: Flow cytometric detection of ZEBRA in Akata cells; assay type: cell-based, Epstein-Barr virus; conditions: 3 hrs after anti-IgG; vesnarinone 0-100 μg/ml
# Description: (§1) The human Burkitt's lymphoma cell line, Akata, provided by Dr. Kenzo Takada (Takada, Int. J. Cancer, 33:27-32 (1984); and Takada et al, Virus Genes, 5:147-156 (1991)), was cultured at 37° C. in RPMI 1640 medium supplemented with 15% (v/v) heat-inactivated FCS, and 20 μg/ml gentamicin.
# (§2) The cell progression of Akata cells was arrested by culturing of the cells for 96 hrs in the presence of 1.5% (y/v) DMSO (Sigma, St. Louis, Mo.) (Sawai et al, Exp. Cell Res., 187:4-10 (1990); and Takase et al, Cell Growth Differ., 3:515-521 (1992)).
# 1 hr after transfer (release from DMSO), a goat F(ab')2 fragment of anti-human IgG antibody (Organon Teknika, Durham, N.C.) was added at a concentration of 50 μg/ml to induce productive EBV replication (Takagi et al, Virology, 185:309-315 (1991)). […]
# For flow cytometric detection of ZEBRA, after a 60 min fixation with 70% (v/v) ethanol at 4° C., 10^6 cells were centrifuged, and washed with PBS. […] The cells were washed with PBS again, and analyzed by flow cytometry (Epics Profile, Coulter), monitoring fluorescence (520-540 nm) in a logarithmic scale with 488 nm excitation. The positivity for ZEBRA was calculated by a non-linear least squares method (Takase et al, J. Immunol. Methods, 118:129-138 (1989)).
# EBV = assay: In situ hybridization of EBV DNA in anti-IgG stimulated DMSO-released Akata cells; assay type: cell-based, Epstein-Barr virus; conditions: 20 hrs after 50 μg/ml anti-IgG; vesnarinone 0-100 μg/ml; acyclovir pretreatment
# Description: as §1, §2
# 1 hr after transfer (release from DMSO), a goat F(ab')2 fragment of anti-human IgG antibody (Organon Teknika, Durham, N.C.) was added at a concentration of 50 μg/ml to induce productive EBV replication (Takagi et al, Virology, 185:309-315 (1991)).
# 3 hrs and 20 hrs after treatment with the anti-IgG, the cells were harvested for flow cytometric detection of the BamHI Z replication activator (ZEBRA), and for in situ detection of EBV DNA, respectively. […]
# More specifically, cells coated on a glass slide were fixed in acetone at room temperature for 10 min. […] Positivity for EBV DNA was determined by the presence of red-colored grains and at least 1000 cells were examined under light microscopy. […]
# [1] = 31 μg/ml vesnarinone in overlay medium
# Akata cells = assay: dNTP pools in Akata cells (enzymatic method); conditions: 100 μg/ml vesnarinone
# Description: After a 10 min incubation on ice, the supernatant containing dNTPs was removed, frozen and evaporated with a rotary evaporator. The residue was dissolved in 100 μl of H2 O, and a 10 μl aliquot of this solution was used for the measurement of dNTP pool.
# More specifically, 10 μl of the sample or a dNTP standard solution was mixed with 40 μl of the reaction buffer comprising 62.5 mMTris-HCl (pH 7.8), 0.625 mM DTT, 0.125 mg/ml calf thymus DNA (Sigma), 0.625 mg/ml BSA, 10 mM MgCl2, 6.25 μM three dNTPs, and 5.0 μCi/ml [^3 H]dATP (ICN, Costa Mesa, Calif.), for measurement of dTTP, dCTP, and dGTP, or [^3 H]dTTP (ICN), for measurement of dATP. The reaction solution was then mixed with 1.0 unit of E. coli DNA polymerase I (Boehringer Mannheim), and incubated for 40 min at 37° C. After completion of the reaction, the mixture was applied to Whatman DE-81 paper filters and radioactivity was determined using a liquid scintillation counter after three washes with 0.35M Na2 HPO4 (pH 7.5). Amounts of dNTP in the samples were calculated according to the calibration curves estimated by a set of standard dNTP samples.
# In parallel, to measurement of the content of dNTPs in the untreated Akata cells after release, the dNTP pool in anti-IgG treated Akata cells was also measured in the same manner.
# MRC5 cells = assay: Microscopic evaluation of cytotoxicity in MRC5 cells; assay type: cell-based; conditions: vesnarinone up to 31 μg/ml, alone or with DHPG
# ZEBRA, R, EA-R, EA-D = assay: Western immunoblot of EBV early antigens in Akata cells; assay type: cell-based, Epstein-Barr virus; conditions: 30 μg/ml vesnarinone
# Description: 1 hr after release and transfer, the above-described anti-IgG antibody was added at a concentration of 50 μg/ml. 3 hrs and 20 hrs after treatment with the anti-IgG, the cells were harvested for the detection of EBV early antigens ZEBRA (BZLF1 product) by Western immunoblot.
# More specifically, cells were washed with PBS, and then lysed at 4° C. in a buffer comprising 25 mM Tris-HCl (pH 7.4), 50 mM NaCl, 0.5% (w/v) sodium deoxycholate, 2.0% (v/v) Nonidet P-40, 0.2% (w/v) SDS, 1.0 mM phenyl-methane sulfonyl fluoride (PMSF), 10 μg/ml aprotinin, 10 μM leupeptin, and 100 μM sodium orthovanadate. After centrifugation, lysates were prepared for electrophoresis as described by Laemmli, Nature, 227:680-685 (1970). An amount of lysate equivalent to 4.0×10^5 cells was used for each immunoblot analysis.
# After electrophoretic transfer of proteins to nitrocellulose filters and blocking the filters with 20 mM Tris-HCl (pH 8.0), 125 mM NaCl, 0.1% (v/v) Tween-20, 2.0% (w/v) BSA, and 0.1% (w/v) sodium azide, the filters were incubated with the appropriate primary antibody. For detection of ZEBRA (EB1, BZLF1 gene product), the antibody used was mouse monoclonal anti-EB1 (Z-125); for the detection of R (BRLF1 product), the antibody used was the mouse monoclonal anti-R (R5A9, provided by Dr. Evelyn Manet); for the detection of EA-R (BHRF1 product), monoclonal anti-EA-R (5B11, provided by Dr. Elliott Kieff) (Pearson et al, Virol., 160:151-161 (1987); and Henderson et al, Proc. Natl. Acad. Sci. USA, 90:8479-8483 (1993)), and for the detection of EA-D (BMRF1 product), the antibody used with the mouse monoclonal anti-EA-D (NEA-9240, DuPont, Boston, Mass. (Pearson et al, J. Virol., 47:193-201 (1983); and Kiehl et al, Virol., 184:330-340 (1991))).
# Specific reactive bands were detected using anti-mouse secondary antibodies conjugated to alkaline phosphatase (Promega, Madison, Wis.) or horseradish peroxidase (Amersham) or ECL chemiluminescence (Amersham). That is, for detection of ZEBRA and R, alkaline phosphatase was used. For detection of EA-R and EA-D, horseradish peroxidase and the ECL chemiluminescence method was used (Amersham). Development was by the conventional methods, employing the colorogenic substrates bromochloroindolyl phosphate and nitroblue tetrazolium for alkaline phosphatase. The expression of ZEBRA reached a plateau level 3 hrs after stimulation and productive replication of EBV ceased 12 hrs after stimulation in this system.
smiles,measurement,setting,value
"COc1ccc(C(=O)N2CCN(c3ccc4c(c3)CCC(=O)N4)CC2)cc1OC [vesnarinone, 3,4-dihydro-6-[4-(3,4-dimethoxybenzoyl)-1-piperazinyl]-2(1H)-quinoline]",degree of positivity for ZEBRA,ZEBRA,not decreased by vesnarinone at concentrations less than or equal to 10 μg/ml
same,population of EBV producing cells (positivity for EBV DNA),EBV,gradually decreased in the presence of vesnarinone in a dose-dependent manner
same,precipitate observed in culture,[1],A small amount of precipitate was observed at 31 μg/ml of vesnarinone
same,cellular content of dATP and dGTP,"Akata cells; 13 hrs after DMSO release, without anti-IgG",displayed progressive reductions 13 hrs after release in the presence of vesnarinone
same,level of dTTP in anti-IgG treated cells,Akata cells; 20 hrs after anti-IgG,partially suppressed in the presence of vesnarinone
same,cellular content of dCTP,Akata cells; after DMSO release,remained low in the presence or absence of vesnarinone
same,cellular content of dTTP,"Akata cells; after DMSO release, without anti-IgG",the levels of dTTP remained quite low
same,cytotoxicity by microscopic evaluation,MRC5 cells,No cytotoxicity was observed
same,expression of ZEBRA (BZLF1),"ZEBRA, R, EA-R, EA-D; 3 hrs after anti-IgG",suppressed 3 hrs after stimulation with anti-IgG to a limited extent
same,expression of EA-R (BHRF1),"ZEBRA, R, EA-R, EA-D; 3 hrs and 20 hrs",expressed to the same degree 3 hrs and 20 hrs after stimulation
same,expression of R (BRLF1),"ZEBRA, R, EA-R, EA-D; 3 hrs and 20 hrs",expressed virtually at the same level in the presence or absence of vesnarinone
same,expression of EA-D (BMRF1),"ZEBRA, R, EA-R, EA-D; 20 hrs after stimulation",dramatically suppressed in the presence of vesnarinone
